One test relates to viable CD8+ population. The experiment in a line: In vitro T cell culture compound screen, flow cytometry for cells co-expressing CCR7 and CD62L in CD8+ cells. The test is classed as cell-based, human. Conditions: 10 μM, about 6 days; for CD8 Hit: anti-CD3/anti-CD28 beads, hit criteria: Z-score > +2 for percent or relative absolute number of CCR7+CD62L+ cells; for number or ratio of cells co-expressing CCR7 and CD62L: viable CD8+ population. An excerpt: (§1) In Vitro T Cell Culture. Fresh leukopaks (AllCells, Alameda, CA) were obtained from healthy donors, from which T cells were negatively selected using the EasySep Human T Cell Enrichment Kit (Stem Cell Technologies, Vancouver, Canada). The freshly isolated T cells were aliquoted and cryopreserved. On the day the screens were initiated, T cells were thawed and washed into X-Vivo 15 with 5% human AB serum, IL-2, pen/strep, and additional supplements. Cells were dispensed into flat-bottom 384-well plates at 5×10^5 cells/ml with anti-CD3/Anti-CD28 dynabeads (ThermoFisher, Waltham, MA) at a 3:1 bead-to-cell ratio. Individual compounds were added at a final concentration of 10 μM to each well from column 3 to column 22 of each plate. Positive and negative controls were added to additional wells. Cells were incubated for about 6 days at 37 degrees with 5% CO2.
(§2) Flow Cytometry. On Day 6 of culture, cells were stained with a fixable viability marker and fluorophore-conjugated antibodies: CD3, CD4, CD8, CD45RA, CD45RO, CD62L, CCR7, CD27, and CD122 (BD Biosciences, San Jose, CA; and BioLegend, San Diego, CA). Fluorescent absolute counting beads (Spherotech, Lake Forest, IL) were added just prior to acquisition. Data acquisition was performed on a BD Fortessa X-20 (BD Biosciences) and data were analyzed using Treestar software (FlowJo, Ashland, OR) and Spotfire (Tibco, Boston, MA).
(§3) These cells are characterized by expression of CCR7 and CD62L. Therefore, cells co-expressing both of these identifying markers were evaluated. Within the viable CD4+ population and viable CD8+ population, the percent of cells co-expressing CCR7 and CD62L was determined. The expression of either CD62L or CCR7 on T cells, as indicative of the desired T cell subsets, have been described as having favorable functional characteristics for CAR-T cell therapy, and potentially other adoptive T cell therapies.
(§4) The number of events in each of these gates relative to the number of absolute counting beads in each sample was calculated, defining a relative measure of the absolute number of naïve, stem cell memory, or central memory T cells within the CD4+ and/or CD8+ populations. A z-Score relative to the screened compound samples within each 384-well plate was calculated for each of these four values: 1) percent CCR7+CD62L+ in CD4+, 2) percent CCR7+CD62L+ in CD8+, 3) absolute relative number of CCR7+CD62L+ in CD4+, and 4) absolute relative number of CCR7+CD62L+ in CD8+(FIGS. 1A and 1i). Z-scores were also calculated for the percent viability of all cells within each sample and the relative absolute number of cells within each sample. A “Z-Score” is a statistical measurement of a score's relationship to the mean in a group of scores. A Z-score of 0 means the score is the same as the mean. A Z-score can also be positive or negative, indicating whether it is above or below the mean and by how many standard deviations.
Background: In flow cytometry, cells or beads pass a laser one at a time.

A further test concerns viable CD4+ population. The experiment in a line: In vitro T cell culture compound screen, flow cytometry for cells co-expressing CCR7 and CD62L in CD4+ cells. The test is classed as cell-based, human. Conditions: 10 μM, about 6 days; for CD4 Hit: anti-CD3/anti-CD28 beads, hit criteria: Z-score > +2 for percent or relative absolute number of CCR7+CD62L+ cells; for number or ratio of cells co-expressing CCR7 and CD62L: viable CD4+ population.
Source text: as §1, §2, §3, §4

The next test relates to Nalm-6-luc. The experiment in a line: In vivo tumor clearance by compound-treated CAR-T cells in tumor-bearing NSG mice. Conditions: 0.2×10^6 CD4 and CD8 CAR-T cells 1:1, retroorbital, one week after tumor injection. The procedure:
CAR-T cells were generated from CD4+ and CD8+ T cells that were separately activated and expanded in vitro. The cells were transduced with the CAR-2 construct (FIG. 2) one day after activation and then replated into 24-well GREX plates with or without the compounds. Half the media was replaced every two days thereafter until harvest one week post-activation. One week after tumor injection, the NSG mice were treated with 0.2×10^6 CD4 and CD8 CAR-T cells mixed at a 1:1 ratio via retroorbital injection. The mice were imaged periodically to determine tumor burden.

Another test concerns CD8 T cells. Put plainly: CD27 cell surface expression on CAR-transduced CD8 T cells by flow cytometry. The test is classed as cell-based, human. Conditions: 20 nM rapa, 10 μM dmPGE2 or both; day 8; two donors; relative to vehicle (DMSO).
A further test has as its system CD8+ T-cells. Put plainly: Genome-wide expression on Human Transcriptome Array microarray chips. Conditions: 20 nM rapa, 10 μM dmPGE2 or both.

Counter-ions that a name gives are not always drawn.

Description for CD8 T cells: (§5) In order to perform these studies, isolated CD8 T cells were activated in bulk on day 0 using CTS (Cell Therapy Systems) Dynabeads™ CD3/CD28 (Thermo Fisher Scientific, Waltham, MA) in T cell media supplemented with IL-2. On day 1, cells were transduced with the CAR Construct 1 shown in FIG. 2 and cell density was adjusted to 0.5×10^6/ml and 10^6 cells were seeded into 12 well plates in the presence of vehicle, 20 nM rapa, 10 μM dmPGE2 or both compounds at the same concentrations. On day 4, cells were transferred into 6-well plates and 2 ml of media was added to each well. On day 6 another 2 ml of media was added to each well. On day 8, cells were analyzed on a flow cytometer for cell surface expression of CD27.
Description for CD8+ T-cells: as §5

For the compound `CN(C)c1ccc(C=C2C(=O)Nc3ccccc32)cc1` [SU 4312], in the test with viable CD8+ population, the “CD8 Hit” value is “CD8”; the “number or ratio of cells co-expressing CCR7 and CD62L” value (“number or ratio” below) is on record as “increased”.

As to `CC[N+](C)(C)c1cccc(O)c1` [Edrophonium chloride], in the test with viable CD8+ population, the “CD8 Hit” value is “CD8”; the “number or ratio” value is on record as “increased”.

As for `COc1cc2nc(N3CCCN(C)CC3)nc(NC3CCN(Cc4ccccc4)CC3)c2cc1OC` [BIX01294], the “CD4 Hit” value with viable CD4+ population is “CD4”. Moreover, the “number or ratio” value in the test on viable CD8+ population is recorded as “increased”.

As to `O=C(O)Cc1cc(I)c(Oc2ccc(O)c(I)c2)c(I)c1` [Tiratricol], in the test with viable CD4+ population, the “CD4 Hit” value is “CD4”; the “number or ratio” value is “increased”. Besides, in the test with viable CD8+ population, the “CD8 Hit” value was “CD8”; the “number or ratio” value is reported as “increased”.

Consider `C=CCc1cccc(/C=N/NC(=O)CN2CCN(Cc3ccccc3)CC2)c1O` [PAC-1], for which the “CD4 Hit” value in the test on viable CD4+ population is recorded as “CD4”. In the test on viable CD8+ population, the “number or ratio” value is “increased”.

Take `O=C(N/N=C/c1ccc([N+](=O)[O-])o1)c1ccc(O)cc1` [Nifuroxazide]: in the test on viable CD8+ population, the “CD8 Hit” value is given as “CD8”; the “number or ratio” value is “increased”.

As for `Nc1ncn([C@@H]2O[C@H](CO)[C@@H](O)[C@H]2O)c(=O)n1` [5-Azacytidine], in the test with viable CD4+ population, the “CD4 Hit” value is “CD4”; the “number or ratio” value was “increased”. In the test on viable CD8+ population, the “CD8 Hit” value is “CD8”; the “number or ratio” value is listed as “increased”.

On to `CC(C)C1CCC2(CO2)C2C(=O)OCC(C(=O)O)=CC12` (stereo not shown) [Heptelidic acid], for which, in the test on viable CD4+ population, the “CD4 Hit” value is “CD4”; the “number or ratio” value is “increased”. In addition, in the test on viable CD8+ population, the “CD8 Hit” value was “CD8”; the “number or ratio” value is listed as “increased”.

Take `NC1CCN(c2nc3c(cc2F)c(=O)c(C(=O)O)cn3-c2ccc(F)cc2F)C1` (stereo not shown) [Tosufloxacin hydrochloride]: the “CD4 Hit” value with viable CD4+ population is “CD4”. Also, the “number or ratio” value in the test with viable CD8+ population is listed as “increased”.

Regarding `N.S=C(S)N1CCCC1` [1-Pyrrolidinecarbodithioic acid, ammonium salt], the “CD4 Hit” value in the test with viable CD4+ population is recorded as “CD4”. Moreover, the “number or ratio” value in the test with viable CD8+ population is on record as “increased”.

With `N#CC(=C(/N)Sc1ccccc1N)/C(C#N)=C(\N)Sc1ccccc1N` [U0126], the “CD4 Hit” value in the test with viable CD4+ population is “CD4”. Moreover, the “number or ratio” value in the test with viable CD8+ population is given as “increased”. Besides, in the test on Nalm-6-luc, the “tumor clearance / tumor control by treated CAR-T cells” value is listed as “minimal tumor control”.

On to `C/C=C(/C)C(=O)O[C@H]1C(C)=C2[C@H]([C@@H]1OC(=O)CCCCCCC)[C@@](C)(OC(C)=O)C[C@H](OC(=O)CCC)[C@@]1(O)[C@H]2OC(=O)[C@@]1(C)O` [Thapsigargin], for which, in the test with viable CD8+ population, the “CD8 Hit” value was “CD8”; the “number or ratio” value is listed as “increased”.

Consider `Sc1ncnc2nc[nH]c12` [6-Mercaptopurine], for which, in the test with viable CD4+ population, the “CD4 Hit” value is recorded as “CD4”; the “number or ratio” value is “increased”. In addition, in the test on viable CD8+ population, the “CD8 Hit” value is given as “CD8”; the “number or ratio” value is “increased”.

Regarding `CO[C@H]1C[C@@H]2CC[C@@H](C)[C@@](O)(O2)C(=O)C(=O)N2CCCC[C@H]2C(=O)O[C@H]([C@H](C)C[C@@H]2CC[C@@H](O)[C@H](OC)C2)CC(=O)[C@H](C)/C=C(\C)[C@@H](O)[C@@H](OC)C(=O)[C@H](C)C[C@H](C)/C=C/C=C/C=C/1C` [rapamycin], the “CD27 expression, relative MFI (vehicle defined as 1)” value in the test on CD8 T cells is reported as “approximately 2 fold”. Moreover, in the test on CD8+ T-cells, the “total number of genes down-regulated more than 2 fold compared to vehicle control” value amounted to 284 and the “total number of genes up-regulated more than 2 fold compared to vehicle control” value came to 215.

As to `CCC(CO)Nc1nc(NCc2ccccc2)c2ncn(C(C)C)c2n1` (stereo in doubt) [Roscovitine, (S)-Isomer], the “CD4 Hit” value with viable CD4+ population was “CD4”. In addition, in the test on viable CD8+ population, the “number or ratio” value is on record as “increased”.

Turning to “2-Naphthacenecarboxamide, 7-chloro-4-(dimethylamino)-1,4,4a,5,5a,6,11,12a-octahy”, in the test on viable CD8+ population, the “CD8 Hit” value is “CD8”; the “number or ratio” value is “increased”.

As to `CCCc1c(-c2ccc(O)cc2)nn(-c2ccc(O)cc2)c1-c1ccc(O)cc1` [1,3,5-tris(4-hydroxyphenyl)-4-propyl-1H-pyrazole], the “CD4 Hit” value in the test on viable CD4+ population is listed as “CD4”. For the same compound, the “number or ratio” value with viable CD8+ population is recorded as “increased”.

Take `CC[n+]1c(/C=C/C=C2/N(C)c3ccccc3C2(C)C)sc2ccccc21.[I-]` [AC-93253 iodide]: in the test on viable CD4+ population, the “CD4 Hit” value is reported as “CD4”; the “number or ratio” value is given as “increased”. For the same compound, in the test with viable CD8+ population, the “CD8 Hit” value is “CD8”; the “number or ratio” value was “increased”.

As to `COc1ccc(-c2cc3nccn3c(Nc3ncccc3C(N)=O)n2)cc1OC` [BAY 61-3606], the “CD4 Hit” value with viable CD4+ population is reported as “CD4”. In the test on viable CD8+ population, the “number or ratio” value is recorded as “increased”.

For the compound `C=CC1=C(C)c2cc3[nH]c(cc4nc(cc5[nH]c(cc1n2)c(C)c5CCC(=O)O)C(CCC(=O)O)=C4C)c(C)c3C=C` [Protoporphyrin IX disodium], in the test on viable CD4+ population, the “CD4 Hit” value was “CD4”. In the test on viable CD8+ population, the “number or ratio” value is given as “increased”.

As to `CC(C)(C)c1ccc(C(O)CCCN2CCC(C(O)(c3ccccc3)c3ccccc3)CC2)cc1` (stereo not shown) [Terfenadine], the “CD4 Hit” value in the test with viable CD4+ population is “CD4”. Also, the “number or ratio” value with viable CD8+ population is on record as “increased”.

With `CCCc1nc2c(C)cc(-c3nc4ccccc4n3C)cc2n1Cc1ccc(-c2ccccc2C(=O)O)cc1` [Telmisartan], the “CD4 Hit” value with viable CD4+ population was “CD4”. Besides, the “number or ratio” value in the test with viable CD8+ population is listed as “increased”.

Consider `Oc1c(I)cc(Cl)c2cccnc12` [8-Quinolinol,5-chloro-7-iodo-], for which, in the test with viable CD4+ population, the “CD4 Hit” value was “CD4”; the “number or ratio” value is “increased”. For the same compound, in the test with viable CD8+ population, the “CD8 Hit” value is listed as “CD8”; the “number or ratio” value was “increased”.

Turning to `Nc1cccc(-c2cc3c(Oc4cccc(O)c4)ncnc3[nH]2)c1` [TWS119], the “tumor clearance / tumor control by treated CAR-T cells” value with Nalm-6-luc is given as “minimal tumor control”.

`Oc1c(Cl)cc(Cl)c2cccnc12` [8-Quinolinol,5,7-dichloro-]: in the test with viable CD4+ population, the “CD4 Hit” value is reported as “CD4”; the “number or ratio” value was “increased”. Further, in the test on viable CD8+ population, the “CD8 Hit” value is given as “CD8”; the “number or ratio” value was “increased”.

Regarding “Diethylenetriaminepentaacetic acid, penta sodium”, in the test with viable CD4+ population, the “CD4 Hit” value was “CD4”; the “number or ratio” value was “increased”. In the test with viable CD8+ population, the “CD8 Hit” value is “CD8”; the “number or ratio” value was “increased”.

As to `CN[C@H]1CC[C@@H](c2ccc(Cl)c(Cl)c2)c2ccccc21` [Sertraline], in the test with viable CD4+ population, the “CD4 Hit” value was “CD4”. Moreover, the “CD8 Hit” value in the test on viable CD8+ population was “CD8”.

On to `C[C@]12CC[C@@H]3c4ccc(O)cc4C[C@@H](CCCCCCCCC[S+]([O-])CCCC(F)(F)C(F)(F)F)[C@H]3[C@@H]1CC[C@@H]2O` (stereo partly shown) [Fulvestrant], for which, in the test on viable CD8+ population, the “CD8 Hit” value was “CD8”; the “number or ratio” value was “increased”.
